The values that follow come from patent US7402589B2, “Tri-substituted ureas as cytokine inhibitors” (The Procter & Gamble Company, priority 2004, dated 2008).

The assay has as its system TNF-α. The assay is described as follows: TNF-α inhibition in lipopolysaccharide (LPS) stimulated human monocytic cells (THP-1). In kind it is cell-based. Particulars: LPS (1 μg/mL) stimulated THP-1 cells, 4 hours, human TNF-α by ELISA. An excerpt:
In addition, Tumor Necrosis Factor, TNF-α, inhibition can be measured by utilizing lipopolysaccharide (LPS) stimulated human monocytic cells (THP-1) as described in: • i) K. M. Mohler et al., “Protection Against a Lethal Dose of Endotoxin by an Inhibitor of Tumour Necrosis Factor Processing”, Nature, 370, pp 218-220 (1994). • ii) U.S. Pat. No. 6,297,381 B1 Cirillo et al., issued Oct. 2, 2001, incorporated by reference and reproduced herein below in relevant portion thereof.
The inhibition of cytokine production can be observed by measuring inhibition of TNF-α in lipopolysaccharide stimulated THP cells. All cells and reagents are diluted in RPMI 1640 with phenol red and L-glutamine, supplemented with additional L-glutamine (total: 4 mM), penicillin and streptomycin (50 units/mL each) and fetal bovine serum (FBS 3%) (GIBCO, all conc. Final). Assay is performed under sterile conditions, only test compound preparation is non-sterile. Initial stock solutions are made in DMSO followed by dilution into RPMI 1640 2-fold higher than the desired final assay concentration. Confluent THP.1 cells (2×10^7 cells/mL, final conc.; American Type Culture Company, Rockville, Md.) are added to 96 well polypropylene round bottomed culture plates (Costar 3790; sterile) containing 125 μL test compound (2-fold concentrated) or DMSO vehicle (controls, blanks). DMSO concentration should not exceed 0.2% final. Cell mixture is allowed to preincubate for 15 minutes at 37° C., 5% CO2 prior to stimulation with lipopolysaccharide (LPS, 1 μg/mL final; Sigma L-2630, from E. coli serotype 0111.B4; stored as 1 mg/mL stock in endotoxin screened diluted H2O vehicle at −80° C.). Blanks (unstimulated) receive H2O vehicle; final incubation volume is 250 μL. Incubation (4 hours) proceeds as described above. Assay is to be terminated by centrifuging plates 5 minutes at room temperature, 1600 rpm […]; supernatants are then transferred to clean 96 well plates and stored at −80° C. until analyzed for human TNF-α by a commercially available ELISA kit (Biosource #KHC3015, Camarillo, Calif.). The calculated IC50 value is the concentration of the test compound that caused a 50% decrease in the maximal TNF-α production.
(An ELISA detects its analyte on a solid surface through an enzyme-linked reagent.)

Each structure is given as a SMILES string.

As to `C[C@H](Nc1nccc(N(C(=O)NCc2ccccc2Cl)c2ccc(F)cc2)n1)C(C)(C)O` [1-(4-Fluorophenyl)-1-{2-[(1S)-2-hydroxy-1,2-dimethyl-propylamino]-pyrimidin-4-yl}-3-(2-chlorobenzyl)-urea], the half-inhibitory concentration (IC50) (in general, the midpoint of a concentration-inhibition curve) was 14 nM.

With `CCOc1ccc(N(C(=O)NCc2ccccc2Cl)c2ccnc(N[C@@H](C)COC)n2)cc1` [1-(4-Ethoxyphenyl)-1-{2-[(1S)-2-methoxy-1-methyl-ethylamino]-pyrimidin-4-yl}-3-(2-chlorobenzyl)-urea], the midpoint of inhibition, the IC50, lay at 56 nM.

In the case of `COc1ccc(N(C(=O)NCc2ccccc2F)c2ccnc(N[C@@H](C)C(C)(C)O)n2)cc1` [1-(4-Methoxyphenyl)-1-{2-[(1S)-2-hydroxy-1,2-dimethyl-propylamino]-pyrimidin-4-yl}-3-(2-fluorobenzyl)-urea], the midpoint of inhibition, the IC50, lay at 13 nM.

`COc1ccc(N(C(=O)NCc2ccccc2Cl)c2ccnc(N[C@@H](C)C(C)(C)O)n2)cc1` [1-(4-Methoxyphenyl)-1-{2-[(1S)-2-hydroxy-1,2-dimethyl-propylamino]-pyrimidin-4-yl}-3-(2-chlorobenzyl)-urea] yielded an IC50 of 9 nM.

Compound `O=C(NCc1ccccc1Cl)N(c1ccc(F)cc1)c1ccnc(NC2CCOCC2)n1` [1-(4-Fluorophenyl)-1-[2-(tetrahydropyran-4-ylamino)-pyrimidin-4-yl]-3-(2-chlorobenzyl)-urea] came in with an IC50 of 16 nM.

Take `COc1ccc(N(C(=O)NCc2ccccc2C)c2ccnc(N[C@@H](C)C(C)(C)O)n2)cc1` [1-(4-Methoxyphenyl)-1-{2-[(1S)-2-hydroxy-1,2-dimethyl-propylamino]-pyrimidin-4-yl}-3-(2-methylbenzyl)-urea]: the IC50 stood at 37 nM.

Compound `COc1ccc(N(C(=O)NCc2ccccc2OC)c2ccnc(N[C@@H](C)C(C)(C)O)n2)cc1` [1-(4-Methoxyphenyl)-1-{2-[(1S)-2-hydroxy-1,2-dimethyl-propylamino]-pyrimidin-4-yl}-3-(2-methoxybenzyl)-urea] yielded a 50% inhibitory concentration (IC50) of 15 nM.
